Data as given in patent US20220378801A1, “NOVEL COMPOUNDS” (AC Immune SA, priority 2019, published 2022).

Tests used:
Type in all cases: cell-based
NLRP3 inflammasome [1] = molecular target: T1, NLRP3 inflammasome (Homo sapiens, UniProt Q96P20); test: NLRP3 inflammasome activation assay, IL-1 beta release, human monocyte-like cells, Nigericin stimulation; set-up: endogenous in cells; conditions: PMA-differentiated, LPS-primed human monocyte-like cells; Nigericin 3.75 μM 3 h; IL-1β by AlphaLISA
Description: (§1) The following assays can be used to determine the inhibitory activity of test compounds on the NLRP3 inflammasome using common stimuli nigericin (Invivogen) or monosodium urate crystals (MSU)(Invivogen).
(§2) Human monocyte-like cells are cultured in RPM11640 Glutamax medium supplemented with 10% heat inactivated FCS and 50 U/ml penicillin-streptomycin (Life Technologies). HMDM (Human Monocyte Derived Macrophage) are isolated from human blood with leucosep tubes and classical monocyte isolation kit from Miltenyi based on negative selection.
(§3) NLRP3 inflammasome activation assays Human monocyte-like cells are seeded at 75000 per well in a 96 well plate and differentiated overnight into macrophages with 10 ng/ml PMA (Phorbol Myristate Acetate). The following day, medium containing 10 ng/ml LPS (lipopolysaccharide) is added. After 3 h of LPS priming, concentrations of test compound in the range from 100 μM to 6 nM are added 30 min prior to NLRP3 inflammasome stimulation with Nigericin 3.75 μM or MSU 150 μg/ml for 3 h.
(§4) For IL-1β quantification, supernatants are analyzed using AlphaLISA kits according to the manufacturer's instructions (Perkin Elmer AlphaLISA AL220F).
(§5) IC50 (concentration corresponding to 50% inhibition) were determined using GraphPad Prism 8.

NLRP3 inflammasome [2] = molecular target: T1, NLRP3 inflammasome; test: NLRP3 inflammasome activation assay, IL-1 beta release, HMDM cells, Nigericin stimulation; conditions: LPS-primed primary human monocyte-derived macrophages; Nigericin 2.5 μM 3 h; IL-1β by AlphaLISA
Description: as §1, §2
(§6) Primary human monocyte-derived macrophages (HMDM) are seeded at 30000 per well in a 96 well plate and differentiated into macrophages with 10 ng/ml Human M-CSF (Macrophage Colony Stimulating Factor). At DIV 8 (Day in vitro) medium containing 10 ng/ml LPS is added. After 3 h of LPS priming, concentrations of test compound in the range from […] are added 30 min prior to NLRP3 inflammasome stimulation with Nigericin 2.5 μM or MSU 150 μg/ml for 3 h.
as §4, §5

NLRP3 inflammasome [3] = molecular target: T1, NLRP3 inflammasome; test: NLRP3 inflammasome activation assay, IL-1 beta release, human monocyte-like cells, MSU stimulation; set-up: endogenous in cells; conditions: PMA-differentiated, LPS-primed human monocyte-like cells; MSU 150 μg/ml 3 h; IL-1β by AlphaLISA
Description: as §1, §2, §3, §4, §5

NLRP3 inflammasome [4] = molecular target: T1, NLRP3 inflammasome; test: NLRP3 inflammasome activation assay, IL-1 beta release, HMDM cells, MSU stimulation; conditions: LPS-primed primary human monocyte-derived macrophages; MSU 150 μg/ml 3 h; IL-1β by AlphaLISA
Description: as §1, §2, §6, §4, §5

T1 sequence (Q96P20 whole entry): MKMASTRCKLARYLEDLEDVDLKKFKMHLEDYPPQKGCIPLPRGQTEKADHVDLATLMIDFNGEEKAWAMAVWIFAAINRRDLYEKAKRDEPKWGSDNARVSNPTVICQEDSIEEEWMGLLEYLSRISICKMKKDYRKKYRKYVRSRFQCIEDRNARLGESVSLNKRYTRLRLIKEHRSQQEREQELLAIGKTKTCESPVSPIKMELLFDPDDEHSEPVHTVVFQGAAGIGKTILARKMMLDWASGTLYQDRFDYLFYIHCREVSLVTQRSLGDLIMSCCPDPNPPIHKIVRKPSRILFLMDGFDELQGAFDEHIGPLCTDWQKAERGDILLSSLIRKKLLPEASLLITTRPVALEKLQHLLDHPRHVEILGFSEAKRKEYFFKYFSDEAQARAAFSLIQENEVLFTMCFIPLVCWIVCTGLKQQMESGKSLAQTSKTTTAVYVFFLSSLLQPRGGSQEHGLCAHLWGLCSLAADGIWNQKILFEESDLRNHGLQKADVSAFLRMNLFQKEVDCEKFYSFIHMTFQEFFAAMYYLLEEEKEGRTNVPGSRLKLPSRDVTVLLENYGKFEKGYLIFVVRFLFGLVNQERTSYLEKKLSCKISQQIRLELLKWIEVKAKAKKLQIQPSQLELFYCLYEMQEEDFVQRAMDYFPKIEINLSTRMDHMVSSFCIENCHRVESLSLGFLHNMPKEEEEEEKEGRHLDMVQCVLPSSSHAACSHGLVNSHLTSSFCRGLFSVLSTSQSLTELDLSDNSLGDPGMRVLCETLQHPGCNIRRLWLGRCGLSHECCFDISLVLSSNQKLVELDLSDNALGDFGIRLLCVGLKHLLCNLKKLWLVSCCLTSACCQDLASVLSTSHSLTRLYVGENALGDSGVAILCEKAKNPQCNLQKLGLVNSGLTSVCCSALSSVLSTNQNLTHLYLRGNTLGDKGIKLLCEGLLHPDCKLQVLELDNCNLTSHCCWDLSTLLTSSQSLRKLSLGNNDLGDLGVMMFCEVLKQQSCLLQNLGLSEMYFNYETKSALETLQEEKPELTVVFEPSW

Structure (SMILES)	IC50 (NLRP3 inflammasome [1]) [nM]	IC50 (NLRP3 inflammasome [2]) [nM]	IC50 (NLRP3 inflammasome [3]) [nM]	IC50 (NLRP3 inflammasome [4]) [nM]
O=C(Nc1c2c(cc3c1CCC3)CCC2)NS1(=O)=NC(=O)c2c(Cl)cccc21 (stereo not shown) [Example 11]	1000 to 10000	1000 to 10000	< 1000	1000 to 10000
CC(C)(O)c1ccc2c(c1)S(=O)(=NC(=O)Nc1c3c(cc4c1CCC4)CCC3)NC2=O (single isomer, unassigned) [Example 41]	< 1000	< 1000	< 1000	< 1000
O=C(Nc1c2c(cc3c1CCC3)CCC2)NS1(=O)=NC(=O)c2ccccc2C1 (stereo not shown) [Example 3]	1000 to 10000	1000 to 10000	< 1000	< 1000
COc1ccc2c(c1)S(=O)(NC(=O)Nc1c3c(cc4c1CCC4)CCC3)=NC2=O (single isomer, unassigned) [Example 48]	< 1000	< 1000	< 1000	< 1000
O=C(Nc1c2c(c(F)c3c1CCC3)CCC2)NS1(=O)=NC(=O)c2ccccc21 (stereo not shown) [Example 5]	1000 to 10000	1000 to 10000	< 1000	< 1000

Second part, the compound after the results:

IC50 (NLRP3 inflammasome [1]) [nM]	IC50 (NLRP3 inflammasome [2]) [nM]	IC50 (NLRP3 inflammasome [3]) [nM]	IC50 (NLRP3 inflammasome [4]) [nM]	Structure (SMILES)
< 1000	1000 to 10000	< 1000	1000 to 10000	COc1cc(-c2cccc(C(C)C)c2NC(=O)NS2(=O)=NC(=O)c3ccc(C(C)(C)O)cc32)ccn1 (stereo not shown) [Example 31]
1000 to 10000	1000 to 10000	< 1000	< 1000	O=C(Nc1c2c(cc3c1CCC3)CCC2)NS1(=O)=NC(=O)c2c(Cl)cccc21 (single isomer, unassigned) [Example 42]
< 1000	1000 to 10000	< 1000	< 1000	O=C(Nc1c2c(cc3c1CCC3)CCC2)NS1(=O)=NC(=O)c2sccc21 (stereo not shown) [Example 4]
1000 to 10000	1000 to 10000	< 1000	< 1000	O=C(N=S1(=O)NC(=O)c2ccccc21)Nc1c2c(cc3c1CCC3)CCC2 (single isomer, unassigned) [Example 1b]
< 1000	< 1000	< 1000	< 1000	O=C(Nc1c2c(c(F)c3c1CCC3)CCC2)NS1(=O)=NC(=O)c2sccc21 (single isomer, unassigned) [Example 55]
< 1000	1000 to 10000	< 1000	< 1000	O=C(Nc1c2c(cc3c1CCC3)CCC2)NS1(=O)=NC(=O)c2cc(F)ccc21 (single isomer, unassigned) [Example 62]
< 1000	1000 to 10000	< 1000	< 1000	O=C(Nc1c2c(cc3c1CCC3)CCC2)NS1(=O)=NC(=O)c2ccccc2C1 (single isomer, unassigned) [Example 34]
< 1000	< 1000	< 1000	< 1000	CC(C)(O)c1ccc2c(c1)S(=O)(=NC(=O)Nc1c3c(cc4c1CCC4)CCC3)NC2=O (stereo not shown) [Example 30, 1-(1,2,3,5,6,7-hexahydro-s-indacen-4-yl)-3-(6-(2-hydroxypropan-2-yl)-1-oxido-3-oxo-3H-1,4-benzo[d]isothiazol-1-yl)urea]
